# According to patent US4201866A, “O-Hemi-succinate of propranolol” (American Home Products Corporation, priority 1977, dated 1980):
# Structures can show the parent of a compound that is named as a salt.
# Test: Oral administration of the compound of Example 6; plasma levels (Example 7)
# Assay type: in vivo
# Conditions: beagle dogs
# Protocol: In this experiment, four beagle dogs were given an 80 mg. oral dose of propranolol HCl or an equivalent dose of the o-hemi-succinate. The animals were divided into two groups of two, each group receiving the drugs according to a crossover design. The crossover experiment was repeated twice. A period of at least one week elapsed between each dosing day. Blood samples were obtained at regular intervals after dosing a plasma was analyzed for free propranolol concentrations.
# The compound of Example 6 was orally administered to beagle dogs in a similar manner as Example 2. Plasma levels of the compound of Example 6 were twice as high as those obtained after an equivalent dose of propranol hydrochloride.
compound,measurement,value
"CCOC(=O)CCC(=O)OC(CNC(C)C)COc1cccc2ccccc12 (stereo not shown) [Example 6, Butanedioic acid-1-[(2-(1-methylethyl)amino] -1-[(1-naphtalenyloxy)methyl]diethylether hydrochloride]",Plasma levels compared with equivalent dose of propranolol hydrochloride,twice as high
